Reference: US11925690B2, “Bifunctional molecules for targeting Rpn11” (AMPHISTA THERAPEUTICS LTD, priority 2018, dated 2024)

What was measured:
Brd4 (L) [1] = target: T1, Brd4 (L) (Homo sapiens, UniProt O60885); assay: Time-dependent BET degradation, immunoblot; assay type: cell-based; design: Dmax: dose or concentration left out as unconfirmed; conditions: HEK293, Brd4 (L)
T1 construct: endogenous in cells; host or cells: HEK293 (CRL-1573), HeLa (CCL-2)
Experimental: (§1) Immunoblotting. Proteins were separated by SDS-PAGE on NuPage 4-12% Bis-Tris gels, followed by transfer to Amersham Protran 0.45 NC nitrocellulose membrane (GE Healthcare) using wet transfer. Membranes were blocked using 5% w/v milk in Tris-buffered saline (TBS) with 0.1% Tween-20. Blots were probed (overnight at 4 °C) using anti-Brd2 (Abcam ab139690, 1:2,000 dilution), anti-Brd3 (Abcam ab50818, 1:500 dilution), and anti-Brd4 (Abcam ab128874, 1:1,000 dilution) primary antibodies, as appropriate. The next day, blots were washed with TBST and incubated (1 h at Room temperature) with anti-Tubulin hFAB-rhodamine (BioRad, 12004166) primary antibody, and either anti-rabbit IRDye 800CW (Licor 1:1,000 dilution) or anti-mouse IRDye 800CW (Licor 1:1,000 dilution) secondary antibody. Blots were developed using a Bio-Rad ChemiDoc MP Imaging System, and band quantification was performed using Image Studio software (LiCor). Band intensities were normalized to the tubulin loading control and reported as % of the average 0.1% DMSO vehicle intensity. Degradation data was plotted and analysed using Prism (Graphpad, version 8).
(§2) HEK293 (0.5×10^6) cells were seeded in standard 6-well plates (2 mL medium) overnight before treatment with compounds at 1 μM concentration, with a final DMSO concentration of 0.1% v/v. After incubation for the desired time (0-24 hrs), cells were washed with DPBS (Gibco) and lysed using 85 μL RIPA buffer (Sigma-Aldrich) supplemented with complete Mini EDTA-free protease inhibitor cocktail (Roche) and benzonase. Lysates were clarified by centrifugation (20000 g, 10 min, 4° C.) and the total protein content of the supernatant was quantified using a Bradford colorimetric assay. Samples were prepared using equal amounts of total protein and LDS sample buffer (Invitrogen). Band intensities were normalized to the tubulin loading control and reported as % of the average 0.1% DMSO vehicle intensity. Degradation data was plotted and analysed using Prism (Graphpad, version 8).
(§3) MZ1 and 11JQ17 were used at 1 μM (4 h) for positive and negative controls, respectively. […]

Brd4 (S) [2] = target: T2, Brd4 (S) (Homo sapiens, UniProt O60885); assay: Time-dependent BET degradation, immunoblot; assay type: cell-based; design: Dmax: dose or concentration left out as unconfirmed; conditions: HEK293, Brd4 (S)
T2 construct: endogenous in cells; host or cells: HEK293 (CRL-1573), HeLa (CCL-2)
Experimental: as §1, §2, §3

Brd2 [3] = target: T3, Brd2 (Homo sapiens, UniProt P25440); assay: Time-dependent BET degradation, immunoblot; assay type: cell-based; conditions: HEK293, Brd2, 1 μM
Experimental: as §1, §2, §3

Brd3 [4] = target: T4, Brd3 (Homo sapiens, UniProt Q15059); assay: Time-dependent BET degradation, immunoblot; assay type: cell-based; conditions: HEK293, Brd3, 1 μM
Experimental: as §1, §2, §3

Brd4 (L) [5] = target: T1, Brd4 (L); assay: Concentration-dependent BET degradation, immunoblot; assay type: cell-based; conditions: 4 h, 1 nM-10 μM
Experimental: as §1
as §2, with “HeLa (5×10^5) and HEK293” for “HEK293”, “(1×10^6)” for “(0.5×10^6)”, “the desired concentration (1 nM-10 μM),” for “1 μM concentration,”, “4 h treatment time,” for “incubation for the desired time (0-24 hrs),”, “cOmplete” for “complete”
(§4) MZ1 and 11JQ17 were used at 1 μM for positive and negative controls, respectively. […] For the table, Dmax: +(Dmax≤25%); ++(26%≤Dmax≤50%); +++(51%≤Dmax≤70%); ++++(71%≤DC50: A (DC50≤50 nM); B (51 nM≤DC50≤500 nM); C (501 nM≤DC50).

Brd4 (S) [6] = target: T2, Brd4 (S); assay: as above; assay type: cell-based; conditions: 4 h, 1 nM-10 μM
Experimental: as §1
as §2, with “HeLa (5×10^5) and HEK293” for “HEK293”, “(1×10^6)” for “(0.5×10^6)”, “the desired concentration (1 nM-10 μM),” for “1 μM concentration,”, “4 h treatment time,” for “incubation for the desired time (0-24 hrs),”, “cOmplete” for “complete”
as §4

Brd2 [7] = target: T3, Brd2; assay: as above; assay type: cell-based; design: endogenous in cells; host or cells: HEK293 (CRL-1573), HeLa (CCL-2); conditions: 1 nM-10 μM
Experimental: as §1
as §2, with “HeLa (5×10^5) and HEK293” for “HEK293”, “(1×10^6)” for “(0.5×10^6)”, “the desired concentration (1 nM-10 μM),” for “1 μM concentration,”, “4 h treatment time,” for “incubation for the desired time (0-24 hrs),”, “cOmplete” for “complete”
as §4

Brd3 [8] = target: T4, Brd3; assay: as above; assay type: cell-based; design: endogenous in cells; host or cells: HEK293 (CRL-1573), HeLa (CCL-2); conditions: 1 nM-10 μM
Experimental: as §1
as §2, with “HeLa (5×10^5) and HEK293” for “HEK293”, “(1×10^6)” for “(0.5×10^6)”, “the desired concentration (1 nM-10 μM),” for “1 μM concentration,”, “4 h treatment time,” for “incubation for the desired time (0-24 hrs),”, “cOmplete” for “complete”
as §4

human cancer cell lines = conditions: cited from earlier work
Brd4 [9] = target: T5, Brd4 (Homo sapiens, UniProt O60885); assay: Mechanistic evaluation: Brd4 degradation after inhibitor pre-treatment; assay type: cell-based; conditions: HEK293, 1 μM degrader 4 h
T5 construct: immunoblot analysis of Brd4 following 4 h treatment of HEK293 cells; endogenous in cells; host or cells: HEK293 (CRL-1573)
Experimental: HeLa (5×10^5) and HEK293 (1×10^6) cells were seeded in standard 6-well plates (2 mL medium) overnight before pre-treatment with inhibitors (10 μM bortezomib, 10 μM capzimin, 10 μM JQ1). After a 0.5 h pre-incubation time, cells were subsequently treated with vehicle, 1 μM MZ1 or 1 μM 11JQ15, yielding a final overall DMSO concentration of 0.2% v/v. After 4 h incubation, cells were washed with DPBS (Gibco) and lysed using 85 μL RIPA buffer (Sigma-Aldrich) supplemented with cOmplete Mini EDTA-free protease inhibitor cocktail (Roche) and benzonase. Lysates were clarified by centrifugation (20000 g, 10 min, 4° C.) and the total protein content of the supernatant was quantified using a Bradford colorimetric assay. Samples were prepared using equal amounts of total protein and LDS sample buffer (Invitrogen).
Brd4 band intensities were normalized to tubulin loading control and reported in FIG. 6B as % of the average 0.1% DMSO vehicle intensity. Each bar is mean±SEM of three independent experiments performed in duplicate (n=3).

HEK293 cells = assay: Unbiased whole proteome analysis by TMT-labelling MS; assay type: cell-based; conditions: HEK293, 1 μM, 4 h, n=3
Experimental: HEK293 (2.2×10 6) cells were seeded in 10 cm plates (10 mL medium) overnight before treatment with 1 μM compound for a final DMSO concentration of 0.1% v/v. After 4 h incubation time, cells were washed with 2× with DPBS (Gibco) and lysed using 500 μL lysis buffer (100 mM Tris, 4% (w/v) SDS, pH 8.0) supplemented with cOmplete Mini EDTA-free protease inhibitor cocktail (Roche) and benzonase. Lysates were briefly sonicated (2×10 s), clarified by centrifugation (20000 g, 10 min, 4° C.) and the total protein content of the supernatant was quantified using a BCA assay (Thermo Fisher Scientific).
Sample processing, digestion, desalting, labelling, and fractionation were performed at Fingerprint Proteomics (University of Dundee) as described previously [Gadd et al. 10.1038/nchembio.2329]. FIG. 7 depicts fold change of abundance of 7882 proteins comparing 11JQ15 to DMSO treatment (left) and comparing 1 μM 11JQ17 to DMSO treatment (right), as well as their respective p-values (t-test; n=3).

Brd4 [10] = target: T5, Brd4; assay: Immunoblot analysis of Brd4 in HEK293 cells (prodrug activity, negative SAR); assay type: cell-based; conditions: HEK293, 1 μM, 4 h, n=3
Experimental: as §1, with “8). […]” for “8).”
HEK293 (1×10^6) cells incubated with DMSO, 1 μM 11JQ15 or 1 μM 11JQ17 for 4 h with a final DMSO concentration of 0.1% v/v. […] Degradation data was plotted and analysed using Prism (Graphpad, version 8), where bars are mean±SEM of three independent experiments.

[11] = 1 μM, time to deplete 50% of the protein relative to DMSO
[12] = 1 μM, time to reach 50% of the Dmax
[13] = time to deplete 50% of the protein relative to DMSO

T3 sequence (P25440 whole entry): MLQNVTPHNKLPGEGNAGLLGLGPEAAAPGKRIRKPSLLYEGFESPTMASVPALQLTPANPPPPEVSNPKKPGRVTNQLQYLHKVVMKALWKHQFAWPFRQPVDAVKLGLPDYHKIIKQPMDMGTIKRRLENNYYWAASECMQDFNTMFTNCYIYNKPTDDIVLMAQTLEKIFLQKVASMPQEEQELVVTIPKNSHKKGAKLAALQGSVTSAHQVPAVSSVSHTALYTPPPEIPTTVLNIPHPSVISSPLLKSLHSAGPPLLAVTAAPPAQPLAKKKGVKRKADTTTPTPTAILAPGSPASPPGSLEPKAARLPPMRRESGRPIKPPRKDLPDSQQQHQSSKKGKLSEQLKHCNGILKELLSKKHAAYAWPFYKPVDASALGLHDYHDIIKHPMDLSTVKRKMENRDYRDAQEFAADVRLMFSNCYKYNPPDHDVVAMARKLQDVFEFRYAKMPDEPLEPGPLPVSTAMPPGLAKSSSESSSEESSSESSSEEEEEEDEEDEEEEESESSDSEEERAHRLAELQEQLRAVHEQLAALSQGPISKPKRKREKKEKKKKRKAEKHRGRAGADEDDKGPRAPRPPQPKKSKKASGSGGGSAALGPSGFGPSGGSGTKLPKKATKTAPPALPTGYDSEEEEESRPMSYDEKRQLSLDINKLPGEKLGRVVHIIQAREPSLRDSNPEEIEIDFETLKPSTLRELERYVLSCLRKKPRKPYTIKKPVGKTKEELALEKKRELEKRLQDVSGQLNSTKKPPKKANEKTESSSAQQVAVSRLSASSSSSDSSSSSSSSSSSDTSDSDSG
T4 sequence (Q15059 whole entry): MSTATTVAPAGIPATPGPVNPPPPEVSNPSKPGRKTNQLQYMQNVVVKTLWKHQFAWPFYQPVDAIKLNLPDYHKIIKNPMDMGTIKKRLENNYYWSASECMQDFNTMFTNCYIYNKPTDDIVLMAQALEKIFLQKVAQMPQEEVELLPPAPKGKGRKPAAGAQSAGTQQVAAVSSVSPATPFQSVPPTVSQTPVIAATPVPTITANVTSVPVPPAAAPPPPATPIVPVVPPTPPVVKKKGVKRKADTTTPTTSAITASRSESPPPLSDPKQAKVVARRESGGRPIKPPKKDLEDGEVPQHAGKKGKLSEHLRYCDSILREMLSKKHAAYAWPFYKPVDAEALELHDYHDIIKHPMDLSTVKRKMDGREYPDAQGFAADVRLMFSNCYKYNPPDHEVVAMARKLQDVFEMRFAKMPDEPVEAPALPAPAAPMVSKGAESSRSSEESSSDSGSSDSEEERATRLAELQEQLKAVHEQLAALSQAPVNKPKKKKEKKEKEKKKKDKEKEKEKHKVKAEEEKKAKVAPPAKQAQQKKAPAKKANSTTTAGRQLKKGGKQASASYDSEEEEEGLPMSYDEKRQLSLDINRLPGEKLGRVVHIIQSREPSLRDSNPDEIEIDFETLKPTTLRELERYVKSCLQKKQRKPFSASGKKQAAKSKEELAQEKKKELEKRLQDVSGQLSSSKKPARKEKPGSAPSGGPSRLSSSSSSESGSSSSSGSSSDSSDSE

SMILES | DC50 (Brd4 (L) [5]; HEK293, Brd4 (L)) | Dmax (Brd4 (L) [5]; HEK293, Brd4 (L)) | DC50 (Brd4 (L) [5]; HeLa) | Dmax (Brd4 (L) [5]; HeLa) | DC50 (Brd4 (S) [6]; HEK293, Brd4 (S)) | Dmax (Brd4 (S) [6]; HEK293, Brd4 (S)) | DC50 (Brd4 (S) [6]; HeLa) | Dmax (Brd4 (S) [6]; HeLa) | DC50 (Brd2 [7]; HEK293, Brd2, 4 h) | Dmax (Brd2 [7]; HEK293, Brd2, 4 h) | DC50 (Brd2 [7]; HeLa, Brd2, 4 h) | Dmax (Brd2 [7]; HeLa, Brd2, 4 h) | DC50 (Brd3 [8]; HEK293, Brd3, 4 h) | Dmax (Brd3 [8]; HEK293, Brd3, 4 h) | DC50 (Brd3 [8]; HeLa, Brd3, 4 h) | Dmax (Brd3 [8]; HeLa, Brd3, 4 h) | other results
Cc1sc2c(c1C)C(c1ccc(Cl)cc1)=N[C@@H](CC(=O)NCCOCCNC(=O)c1cc(S)c3ncc(C(=O)NCCc4nccs4)cc3c1)c1nnc(C)n1-2 [Example 11JQ1] | 51 to 500 nM | ≥ 71% | 51 to 500 nM | ≥ 71% | 51 to 500 nM | ≥ 71% | 51 to 500 nM | ≥ 71% | 51 to 500 nM | ≥ 71% | 51 to 500 nM | 26 to 50% | ≥ 501 nM | 51 to 70% | ≥ 501 nM | 51 to 70% | Dmax (Brd4 (L) [1]; 0-24 hrs): 95%; Abs. T1/2 (Brd4 (L) [1]; [11]): 1.7 h; T1/2 (Brd4 (L) [1]; [12]): 1.6 h; Dmax (Brd4 (S) [2]; 0-24 hrs): 95%; Abs. T1/2 (Brd4 (S) [2]; [11]): 1.9 h; T1/2 (Brd4 (S) [2]; [12]): 2 h; Dmax at 1 µM (Brd2 [3]; 0-24 hrs): 60%; Abs. T1/2 (Brd2 [3]; [13]): 3.5 h; T1/2 (Brd2 [3]; time to reach 50% of the Dmax): 1.0 h; Dmax at 1 µM (Brd3 [4]; 0-24 hrs): 90%; Abs. T1/2 (Brd3 [4]; [13]): 3.5 h; T1/2 (Brd3 [4]; time to reach 50% of the Dmax): 2.7 h
Cn1c(COP(=O)(NCCBr)NCCBr)cnc1[N+](=O)[O-] [TH-302, (1-methyl-2-nitro-1H-imidazole5-yl) N, N0-bis (2-bromoethyl) diamidophosphate] | – | – | – | – | – | – | – | – | – | – | – | – | – | – | – | – | cytotoxic potency (human cancer cell lines; hypoxic conditions): greatly enhanced cytotoxic potency; cytotoxic activity (human cancer cell lines; normoxic conditions): little cytotoxic activity
Cc1ncsc1-c1ccc(CNC(=O)[C@@H]2C[C@@H](O)CN2C(=O)[C@@H](NC(=O)COCCOCCOCCNC(=O)C[C@@H]2N=C(c3ccc(Cl)cc3)c3c(sc(C)c3C)-n3c(C)nnc32)C(C)(C)C)cc1 [MZ1, reference compound] | – | – | – | – | – | – | – | – | – | – | – | – | – | – | – | – | Brd4 degradation in the presence of JQ1 (Brd4 [9]; 10 μM JQ1 pre-treatment 0.5 h): blocked; Brd4 degradation in the presence of bortezomib (Brd4 [9]; 10 μM bortezomib pre-treatment 0.5 h): blocked; Brd4 degradation in the presence of capzimin (Brd4 [9]; 10 μM capzimin pre-treatment 0.5 h): only blocked by bortezomib and JQ1
Cc1sc2c(c1C)C(c1ccc(Cl)cc1)=N[C@@H](CC(=O)NCCCCNC(=O)c1cc(S)c3ncc(C(=O)NCc4ccc(F)cc4)cc3c1)c1nnc(C)n1-2 [Example 11JQ12] | 51 to 500 nM | ≥ 71% | ≥ 501 nM | ≥ 71% | 51 to 500 nM | ≥ 71% | ≥ 501 nM | ≥ 71% | ≥ 501 nM | 26 to 50% | ≥ 501 nM | 26 to 50% | ≥ 501 nM | 26 to 50% | ≥ 501 nM | ≤ 25% | –
Cc1sc2c(c1C)C(c1ccc(Cl)cc1)=N[C@@H](CC(=O)NCCOCCNC(=O)c1cc(SC(C)(C)C)c3ncc(C(=O)NCCc4nccs4)cc3c1)c1nnc(C)n1-2 [Example 11JQ17] | – | ≤ 25% | – | ≤ 25% | – | ≤ 25% | – | ≤ 25% | – | ≤ 25% | – | ≤ 25% | – | ≤ 25% | – | ≤ 25% | fold change of abundance of 7882 proteins vs DMSO (FIG. 7) (HEK293 cells): does not show any BET depletion; Brd4 levels (FIG. 3) (Brd4 [10]): minimal depletion
